Assay results as given in ChEMBL document CHEMBL1201862, “PubChem BioAssay data set” (2004).
Each block holds one compound with its values, some of them ahead of it. Activity calls are given as the source filed them.

How the values were obtained:
[1] = biological target: Glyceraldehyde-3-phosphate dehydrogenase (Homo sapiens, UniProt P04406)
[2] = biological target: T1, Alkaline phosphatase, tissue-nonspecific isozyme (Homo sapiens, UniProt P05186); test: potency against alkaline phosphatase TNAP – biochemical, luminescent, dose response, SAR follow-up (AID 1056)
T1 sequence (P05186 whole entry): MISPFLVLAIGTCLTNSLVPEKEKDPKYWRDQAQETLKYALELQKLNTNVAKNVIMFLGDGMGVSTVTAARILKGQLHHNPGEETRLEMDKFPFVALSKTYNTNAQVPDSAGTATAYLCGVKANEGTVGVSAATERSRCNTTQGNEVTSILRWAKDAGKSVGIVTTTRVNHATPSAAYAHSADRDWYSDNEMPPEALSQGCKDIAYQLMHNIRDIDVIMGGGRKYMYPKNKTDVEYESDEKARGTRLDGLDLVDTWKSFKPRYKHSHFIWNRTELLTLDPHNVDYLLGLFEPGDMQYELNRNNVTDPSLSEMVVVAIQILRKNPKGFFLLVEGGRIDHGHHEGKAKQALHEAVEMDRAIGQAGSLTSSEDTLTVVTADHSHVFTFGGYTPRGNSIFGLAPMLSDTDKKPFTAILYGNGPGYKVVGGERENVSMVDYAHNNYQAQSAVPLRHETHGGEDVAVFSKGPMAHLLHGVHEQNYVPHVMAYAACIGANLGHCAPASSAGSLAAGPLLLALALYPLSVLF

[3] = biological target: G-protein coupled receptor 55 (Homo sapiens, UniProt Q9Y2T6); test: selective activators of receptor GPR55 – imaging, U2OS cells, beta-arrestin-GFP redistribution, primary screen (AID 1961); assay type: functional
Chain of G-protein coupled receptor 55 (Q9Y2T6 whole entry): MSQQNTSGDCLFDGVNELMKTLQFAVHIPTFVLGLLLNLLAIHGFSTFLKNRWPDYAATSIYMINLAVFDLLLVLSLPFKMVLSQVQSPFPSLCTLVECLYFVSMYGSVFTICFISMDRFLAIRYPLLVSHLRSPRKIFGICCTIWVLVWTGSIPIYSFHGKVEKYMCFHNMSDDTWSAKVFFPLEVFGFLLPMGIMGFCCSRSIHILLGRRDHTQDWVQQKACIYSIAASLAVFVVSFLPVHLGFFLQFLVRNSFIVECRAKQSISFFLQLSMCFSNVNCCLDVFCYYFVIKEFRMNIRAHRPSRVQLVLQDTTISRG

[4] = NIH3T3 cell viability loss – ATP luminescence, mouse fibroblasts, counter-screen, dose response (AID 2010); assay type: functional, cell-based;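 note: cells exposed to compound for about 90 hours before reading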
[5] = Trypanosoma cruzi growth suppression in host cells – NIH3T3 host cells, beta-gal luminescence, confirmation (AID 2044); assay type: functional, cell-based;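 note: intracellular parasites grown in NIH/3T3 mouse fibroblasts as host cells; luminescent beta-galactosidase reporter signal from transgenic T. cruzi replicating inside host cells; inhibitors lower the luminescence signal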
[6] = biological target: T2, Voltage-gated N-type calcium channel alpha-1B subunit/Amyloid beta A4 precursor protein-binding family A member 1 (Homo sapiens, UniProt Q00975+Q02410); assay type: protein assay
T2 sequence (Q00975 whole entry): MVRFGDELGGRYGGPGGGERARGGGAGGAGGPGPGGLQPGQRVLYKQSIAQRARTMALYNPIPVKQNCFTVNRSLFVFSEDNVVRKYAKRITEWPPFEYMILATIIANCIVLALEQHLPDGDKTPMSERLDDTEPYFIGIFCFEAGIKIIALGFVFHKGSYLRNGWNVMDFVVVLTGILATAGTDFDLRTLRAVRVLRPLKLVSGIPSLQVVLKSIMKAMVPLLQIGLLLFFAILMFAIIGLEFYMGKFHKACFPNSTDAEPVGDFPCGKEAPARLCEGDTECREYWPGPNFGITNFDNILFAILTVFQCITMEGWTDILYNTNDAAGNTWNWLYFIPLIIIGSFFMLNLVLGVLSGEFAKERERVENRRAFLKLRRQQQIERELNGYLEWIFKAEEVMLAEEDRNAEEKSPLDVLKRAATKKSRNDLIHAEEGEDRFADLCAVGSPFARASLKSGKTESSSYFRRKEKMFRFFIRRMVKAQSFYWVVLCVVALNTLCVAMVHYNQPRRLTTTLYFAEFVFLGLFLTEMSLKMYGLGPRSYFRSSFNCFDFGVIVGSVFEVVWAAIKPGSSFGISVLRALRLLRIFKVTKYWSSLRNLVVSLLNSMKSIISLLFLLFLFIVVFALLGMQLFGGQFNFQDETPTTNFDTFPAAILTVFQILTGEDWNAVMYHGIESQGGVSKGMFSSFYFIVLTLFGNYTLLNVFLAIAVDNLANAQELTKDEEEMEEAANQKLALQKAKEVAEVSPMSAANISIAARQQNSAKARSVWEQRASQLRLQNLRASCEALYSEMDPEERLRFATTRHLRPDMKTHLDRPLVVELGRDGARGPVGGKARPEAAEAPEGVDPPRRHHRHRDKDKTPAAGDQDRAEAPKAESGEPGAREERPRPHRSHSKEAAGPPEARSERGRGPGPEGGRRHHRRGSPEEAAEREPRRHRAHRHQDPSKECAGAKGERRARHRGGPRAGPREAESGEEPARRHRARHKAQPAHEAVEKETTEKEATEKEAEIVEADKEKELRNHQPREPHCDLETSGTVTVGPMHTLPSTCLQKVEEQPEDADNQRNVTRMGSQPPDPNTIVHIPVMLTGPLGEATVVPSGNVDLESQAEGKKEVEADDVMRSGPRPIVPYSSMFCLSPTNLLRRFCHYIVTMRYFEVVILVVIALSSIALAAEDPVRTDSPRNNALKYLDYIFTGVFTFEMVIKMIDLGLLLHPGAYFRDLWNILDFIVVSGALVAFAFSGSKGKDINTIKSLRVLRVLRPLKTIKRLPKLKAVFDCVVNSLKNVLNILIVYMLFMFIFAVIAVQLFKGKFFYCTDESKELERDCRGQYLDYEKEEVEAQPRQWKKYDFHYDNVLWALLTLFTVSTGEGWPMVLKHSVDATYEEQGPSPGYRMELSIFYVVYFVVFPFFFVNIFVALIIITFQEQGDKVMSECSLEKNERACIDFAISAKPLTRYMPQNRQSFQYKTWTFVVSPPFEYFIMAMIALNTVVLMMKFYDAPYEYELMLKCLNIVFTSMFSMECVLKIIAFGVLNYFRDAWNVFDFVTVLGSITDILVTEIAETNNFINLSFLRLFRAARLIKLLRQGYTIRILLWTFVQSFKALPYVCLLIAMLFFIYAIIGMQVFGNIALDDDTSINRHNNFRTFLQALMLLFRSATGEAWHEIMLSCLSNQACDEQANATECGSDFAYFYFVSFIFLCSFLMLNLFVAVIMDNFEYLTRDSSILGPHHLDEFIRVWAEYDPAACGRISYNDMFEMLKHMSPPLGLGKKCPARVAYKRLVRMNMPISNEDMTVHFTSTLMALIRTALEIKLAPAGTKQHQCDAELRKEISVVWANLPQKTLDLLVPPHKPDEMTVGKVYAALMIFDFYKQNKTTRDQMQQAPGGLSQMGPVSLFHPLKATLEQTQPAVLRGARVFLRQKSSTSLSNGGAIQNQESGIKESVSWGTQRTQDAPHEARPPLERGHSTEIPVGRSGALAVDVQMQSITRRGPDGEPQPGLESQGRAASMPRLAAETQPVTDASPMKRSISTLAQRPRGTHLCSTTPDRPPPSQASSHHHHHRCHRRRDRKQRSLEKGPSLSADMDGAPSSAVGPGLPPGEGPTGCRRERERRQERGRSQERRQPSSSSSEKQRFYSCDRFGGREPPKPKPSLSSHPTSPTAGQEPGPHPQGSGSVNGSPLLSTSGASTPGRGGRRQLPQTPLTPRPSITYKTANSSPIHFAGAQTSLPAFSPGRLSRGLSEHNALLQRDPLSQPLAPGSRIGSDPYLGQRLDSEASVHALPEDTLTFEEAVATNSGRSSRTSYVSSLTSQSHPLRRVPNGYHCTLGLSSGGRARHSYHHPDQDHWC
T2 sequence (Q02410 whole entry): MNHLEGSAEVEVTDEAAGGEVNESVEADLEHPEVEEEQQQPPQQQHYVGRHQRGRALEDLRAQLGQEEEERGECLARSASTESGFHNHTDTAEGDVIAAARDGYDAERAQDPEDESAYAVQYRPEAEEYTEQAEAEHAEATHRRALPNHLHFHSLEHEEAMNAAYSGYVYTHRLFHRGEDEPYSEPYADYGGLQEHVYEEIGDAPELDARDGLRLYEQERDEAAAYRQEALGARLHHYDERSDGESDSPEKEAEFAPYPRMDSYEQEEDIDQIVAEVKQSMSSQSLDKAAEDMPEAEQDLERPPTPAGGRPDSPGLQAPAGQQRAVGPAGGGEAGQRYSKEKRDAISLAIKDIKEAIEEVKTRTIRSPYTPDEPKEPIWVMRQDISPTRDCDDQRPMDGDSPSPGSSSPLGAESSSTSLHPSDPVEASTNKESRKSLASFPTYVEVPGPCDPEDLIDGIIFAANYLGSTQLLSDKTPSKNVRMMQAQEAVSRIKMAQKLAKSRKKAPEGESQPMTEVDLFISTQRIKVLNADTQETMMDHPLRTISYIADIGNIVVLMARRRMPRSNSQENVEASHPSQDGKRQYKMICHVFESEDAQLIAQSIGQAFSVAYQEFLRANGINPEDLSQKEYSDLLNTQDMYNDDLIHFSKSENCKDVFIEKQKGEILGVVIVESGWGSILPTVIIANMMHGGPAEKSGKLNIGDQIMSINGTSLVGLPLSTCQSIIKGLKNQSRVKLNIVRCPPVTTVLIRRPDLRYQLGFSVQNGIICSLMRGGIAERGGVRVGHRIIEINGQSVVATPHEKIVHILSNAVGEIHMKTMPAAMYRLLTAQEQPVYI

[7] = biological target: T2, Voltage-gated N-type calcium channel alpha-1B subunit/Amyloid beta A4 precursor protein-binding family A member 1; assay type: protein assay; remark: listed apart in the source
[8] = biological target: T3, Mannose-6-phosphate isomerase (Homo sapiens, UniProt P34949); test: MPI enzyme activity inhibition – biochemical, fluorescence intensity, coupled assay, primary screen (AID 1209)
T3 sequence (P34949 whole entry): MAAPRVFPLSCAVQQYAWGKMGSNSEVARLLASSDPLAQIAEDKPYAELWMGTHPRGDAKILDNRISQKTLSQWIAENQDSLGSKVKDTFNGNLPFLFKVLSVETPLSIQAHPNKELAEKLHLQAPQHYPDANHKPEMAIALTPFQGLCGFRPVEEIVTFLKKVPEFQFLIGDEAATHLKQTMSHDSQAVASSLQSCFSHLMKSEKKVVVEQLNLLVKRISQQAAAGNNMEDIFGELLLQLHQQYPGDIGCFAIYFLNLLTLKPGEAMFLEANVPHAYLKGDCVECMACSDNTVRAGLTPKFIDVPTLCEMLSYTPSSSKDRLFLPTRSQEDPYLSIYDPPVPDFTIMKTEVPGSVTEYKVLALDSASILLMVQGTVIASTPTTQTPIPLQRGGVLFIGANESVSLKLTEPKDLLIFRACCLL

Hexokinase HKDC1 = biological target: T4, Hexokinase HKDC1 (Homo sapiens, UniProt Q2TB90); test: inhibition of HKDC1 glucose phosphorylation – biochemical, W721R variant, dose response (AID 504729); assay type: functional
T4 sequence (Q2TB90 whole entry): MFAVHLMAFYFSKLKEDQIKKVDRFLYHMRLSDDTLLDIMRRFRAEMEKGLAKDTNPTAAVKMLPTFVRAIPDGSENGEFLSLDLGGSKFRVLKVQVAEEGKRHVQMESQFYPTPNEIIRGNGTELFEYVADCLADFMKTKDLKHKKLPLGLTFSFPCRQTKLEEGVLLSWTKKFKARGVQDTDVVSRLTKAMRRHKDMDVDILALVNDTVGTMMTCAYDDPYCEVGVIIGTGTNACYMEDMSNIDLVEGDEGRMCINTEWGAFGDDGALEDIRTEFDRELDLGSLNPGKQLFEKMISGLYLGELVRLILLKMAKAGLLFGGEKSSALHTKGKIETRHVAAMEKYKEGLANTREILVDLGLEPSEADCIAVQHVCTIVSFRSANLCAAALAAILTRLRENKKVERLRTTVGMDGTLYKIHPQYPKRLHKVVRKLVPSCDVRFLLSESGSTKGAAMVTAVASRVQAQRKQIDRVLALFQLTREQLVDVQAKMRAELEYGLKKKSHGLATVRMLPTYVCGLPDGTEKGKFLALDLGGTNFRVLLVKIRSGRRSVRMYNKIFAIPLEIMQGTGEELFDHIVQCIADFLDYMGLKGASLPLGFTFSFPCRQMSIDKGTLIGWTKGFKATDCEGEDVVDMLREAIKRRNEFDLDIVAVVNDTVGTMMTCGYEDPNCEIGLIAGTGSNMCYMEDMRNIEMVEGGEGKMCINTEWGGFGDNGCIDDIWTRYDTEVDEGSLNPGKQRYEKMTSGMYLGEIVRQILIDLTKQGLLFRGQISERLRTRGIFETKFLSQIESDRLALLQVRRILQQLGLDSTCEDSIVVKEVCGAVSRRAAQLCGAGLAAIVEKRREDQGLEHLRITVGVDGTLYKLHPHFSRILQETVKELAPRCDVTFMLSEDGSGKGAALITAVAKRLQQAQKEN

Bcl-2-like protein 10 = biological target: T5, Bcl-2-like protein 10 (Homo sapiens, UniProt Q9HD36); test: Bcl-B/TR3 peptide binding disruption – biochemical, fluorescence polarization, FITC-TR3 peptide, selectivity assay for Bfl-1 inhibitor project, primary screen (AID 748);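 note: fluorescence polarization from a fluorescein-labelled TR3 peptide binding purified Bcl-B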
T5 sequence (Q9HD36 whole entry): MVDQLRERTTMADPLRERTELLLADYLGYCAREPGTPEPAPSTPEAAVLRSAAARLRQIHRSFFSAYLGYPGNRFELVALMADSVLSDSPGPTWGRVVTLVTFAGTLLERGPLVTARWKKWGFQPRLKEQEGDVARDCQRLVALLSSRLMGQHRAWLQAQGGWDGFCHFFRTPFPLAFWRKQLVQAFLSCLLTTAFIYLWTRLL

[9] = biological target: Induced myeloid leukemia cell differentiation protein Mcl-1 (Homo sapiens, UniProt Q07820); assay type: functional
Chain of Induced myeloid leukemia cell differentiation protein Mcl-1 (Q07820 whole entry): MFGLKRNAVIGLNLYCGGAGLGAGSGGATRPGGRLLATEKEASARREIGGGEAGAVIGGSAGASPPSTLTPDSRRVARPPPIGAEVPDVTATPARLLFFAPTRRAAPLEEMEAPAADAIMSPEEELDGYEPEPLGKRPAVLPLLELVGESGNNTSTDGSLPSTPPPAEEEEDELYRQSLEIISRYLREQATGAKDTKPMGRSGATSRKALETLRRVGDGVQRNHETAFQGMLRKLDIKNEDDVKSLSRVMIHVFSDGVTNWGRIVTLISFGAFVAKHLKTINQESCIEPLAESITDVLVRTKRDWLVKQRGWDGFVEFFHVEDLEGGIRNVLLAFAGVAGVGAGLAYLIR

Estrogen receptor = biological target: T6, Estrogen receptor (Homo sapiens, UniProt P03372);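 note: potency for inhibiting coactivator peptide recruitment to the receptor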
T6 sequence (P03372 whole entry): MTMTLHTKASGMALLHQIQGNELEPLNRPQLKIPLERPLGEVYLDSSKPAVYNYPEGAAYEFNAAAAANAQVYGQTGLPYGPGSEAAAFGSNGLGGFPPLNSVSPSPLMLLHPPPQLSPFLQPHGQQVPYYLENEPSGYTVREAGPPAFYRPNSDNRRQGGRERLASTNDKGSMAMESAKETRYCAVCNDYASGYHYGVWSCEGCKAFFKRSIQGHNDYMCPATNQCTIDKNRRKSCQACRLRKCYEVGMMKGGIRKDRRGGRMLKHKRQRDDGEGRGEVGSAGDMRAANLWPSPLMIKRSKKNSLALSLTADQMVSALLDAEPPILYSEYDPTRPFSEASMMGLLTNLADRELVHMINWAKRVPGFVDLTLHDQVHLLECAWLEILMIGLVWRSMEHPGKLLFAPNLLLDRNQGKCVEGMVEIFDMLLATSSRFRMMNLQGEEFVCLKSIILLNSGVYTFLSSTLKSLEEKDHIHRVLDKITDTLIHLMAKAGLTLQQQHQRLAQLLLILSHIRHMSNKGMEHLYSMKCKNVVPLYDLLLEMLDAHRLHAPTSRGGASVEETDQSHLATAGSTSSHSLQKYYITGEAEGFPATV

[10] = biological target: T3, Mannose-6-phosphate isomerase; test: MPI inhibition at elevated mannose 6-phosphate – biochemical, fluorescence intensity, high mannose 6-phosphate, primary screen (AID 1220)
[11] = biological target: T7, Apoptotic protease-activating factor 1 (Homo sapiens, UniProt O14727); assay type: functional
T7 sequence (O14727 whole entry): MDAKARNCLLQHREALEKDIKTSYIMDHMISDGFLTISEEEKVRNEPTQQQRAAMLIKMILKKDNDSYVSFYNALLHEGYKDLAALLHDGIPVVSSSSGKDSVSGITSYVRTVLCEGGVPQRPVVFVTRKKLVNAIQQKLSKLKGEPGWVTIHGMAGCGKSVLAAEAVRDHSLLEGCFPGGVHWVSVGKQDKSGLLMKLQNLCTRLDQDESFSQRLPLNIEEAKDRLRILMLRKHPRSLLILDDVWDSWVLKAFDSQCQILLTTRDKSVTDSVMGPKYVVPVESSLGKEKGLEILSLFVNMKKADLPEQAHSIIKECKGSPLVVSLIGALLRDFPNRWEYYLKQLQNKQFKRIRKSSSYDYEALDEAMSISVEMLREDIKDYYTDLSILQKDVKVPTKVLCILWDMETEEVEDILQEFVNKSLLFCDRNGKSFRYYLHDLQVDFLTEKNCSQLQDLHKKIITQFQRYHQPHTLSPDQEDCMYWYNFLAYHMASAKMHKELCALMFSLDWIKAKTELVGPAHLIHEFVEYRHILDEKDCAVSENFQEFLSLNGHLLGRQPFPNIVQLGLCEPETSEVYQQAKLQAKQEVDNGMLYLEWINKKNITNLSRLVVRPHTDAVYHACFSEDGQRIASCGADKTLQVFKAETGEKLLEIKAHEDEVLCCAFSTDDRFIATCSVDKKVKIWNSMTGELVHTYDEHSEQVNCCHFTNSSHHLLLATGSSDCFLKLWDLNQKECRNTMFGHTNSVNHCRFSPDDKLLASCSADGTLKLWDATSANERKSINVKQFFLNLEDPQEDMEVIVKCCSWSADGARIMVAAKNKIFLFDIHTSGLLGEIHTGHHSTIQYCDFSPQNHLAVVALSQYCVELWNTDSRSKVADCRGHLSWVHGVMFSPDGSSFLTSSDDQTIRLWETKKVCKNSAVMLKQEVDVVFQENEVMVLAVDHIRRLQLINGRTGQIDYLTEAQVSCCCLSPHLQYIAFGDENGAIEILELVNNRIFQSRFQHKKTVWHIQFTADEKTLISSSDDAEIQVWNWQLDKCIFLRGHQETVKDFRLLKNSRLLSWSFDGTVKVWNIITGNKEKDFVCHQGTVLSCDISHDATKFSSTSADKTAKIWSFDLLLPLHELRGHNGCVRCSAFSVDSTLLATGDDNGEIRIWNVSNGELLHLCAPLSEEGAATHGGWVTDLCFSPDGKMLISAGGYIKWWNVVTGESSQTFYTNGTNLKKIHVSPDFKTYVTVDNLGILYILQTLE

[12] = biological target: Intestinal-type alkaline phosphatase (Homo sapiens, UniProt P09923); test: Dose Response confirmation of uHTS hits from a small molecule inhibitors of human intestinal alkaline phosphatase via a luminescent assay. [Related pubchem assays (depositor defined):AID2544, AID2574]; assay type: functional
Chain of Intestinal-type alkaline phosphatase (P09923 whole entry): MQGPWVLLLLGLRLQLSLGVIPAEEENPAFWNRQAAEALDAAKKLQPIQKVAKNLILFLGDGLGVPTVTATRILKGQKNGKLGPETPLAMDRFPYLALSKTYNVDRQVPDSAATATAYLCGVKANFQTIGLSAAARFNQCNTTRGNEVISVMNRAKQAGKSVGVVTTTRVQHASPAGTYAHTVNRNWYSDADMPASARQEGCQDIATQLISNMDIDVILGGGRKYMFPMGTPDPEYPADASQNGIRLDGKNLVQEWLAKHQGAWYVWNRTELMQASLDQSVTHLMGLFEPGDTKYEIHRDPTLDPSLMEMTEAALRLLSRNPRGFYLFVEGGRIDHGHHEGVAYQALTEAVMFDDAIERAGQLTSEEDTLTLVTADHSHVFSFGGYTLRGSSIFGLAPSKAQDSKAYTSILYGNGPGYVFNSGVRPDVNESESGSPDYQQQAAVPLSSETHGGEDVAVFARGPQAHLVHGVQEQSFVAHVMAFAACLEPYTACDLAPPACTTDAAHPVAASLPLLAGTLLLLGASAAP

Estrogen receptor beta = Estrogen receptor beta (Homo sapiens, UniProt Q92731);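 note: recombinant ER-beta bound to coactivator SRC1 peptide in presence of estradiol agonist; inhibitors block coactivator peptide binding and lower the FRET signal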

Chain of Glyceraldehyde-3-phosphate dehydrogenase (P04406 whole entry): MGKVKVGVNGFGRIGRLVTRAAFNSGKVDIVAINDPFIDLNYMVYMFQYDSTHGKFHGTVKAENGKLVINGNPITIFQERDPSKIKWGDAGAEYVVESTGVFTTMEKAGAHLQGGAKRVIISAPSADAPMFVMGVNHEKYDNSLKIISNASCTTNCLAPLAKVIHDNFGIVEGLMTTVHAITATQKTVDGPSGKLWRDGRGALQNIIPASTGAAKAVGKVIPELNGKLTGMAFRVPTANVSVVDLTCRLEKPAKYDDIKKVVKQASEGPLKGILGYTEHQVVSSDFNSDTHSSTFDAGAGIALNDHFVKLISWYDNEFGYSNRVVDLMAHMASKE

SMILES: CCCN(CCC)c1nc2c(C)cccn2c(=O)c1/C=C1/SC(=S)N(Cc2ccco2)C1=O
EC50 [3]: 2.97 µM (active)
EC50 [4]: > 30 µM (not active)
EC50 [5]: 0.352 µM (active)

SMILES: Cc1snc(SCC(=O)c2ccc([N+](=O)[O-])cc2)c1C#N
IC50 [8]: 33.9 µM (active)

SMILES: Cc1nc2c(c(=O)c3ccccc3n2C)c(=O)n1-c1ccccc1
IC50 (Hexokinase HKDC1): 11.8 µM (active)

SMILES: COC(=O)c1cc2ccsc2n1CC(=O)Nc1ccc(N(C)C)cc1
IC50 (Estrogen receptor): 47.3 µM (not active)
EC50 [4]: > 30 µM (not active)
EC50 [5]: 4.34 µM (active)

SMILES: CCCCCn1c(NC(=O)c2ccco2)c(C(=O)OCC)c2nc3ccccc3nc21
IC50 [10]: > 50 µM (not active)
IC50 [8]: > 50 µM (not active)
IC50 [11]: 20.3 µM (active)

SMILES: CSc1nnc(NC(=O)CSc2nc(C)cc(C)n2)[nH]1
IC50 [2]: > 100 µM (inactive)

SMILES: CC(=O)Nc1ccc(SC[C@H](CC(C)C)N2CCN(CCc3ccccc3)CCC2=O)cc1
EC50 [3]: 9 µM (active)

SMILES: Cc1c(Cl)cnc(NC(=O)COC(=O)C(NC(=O)c2ccco2)C(C)C)c1Cl (stereo unspecified)
IC50 (Bcl-2-like protein 10): 18.2 µM (active)

SMILES: N#CC(C#N)=NNc1ccc(S(N)(=O)=O)cc1
IC50 [6]: > 50 µM (inactive)
IC50 [9]: 4.71 µM (active)
IC50 [7]: 16.9 µM (active)

Further lines, results first:

IC50 [1]: > 100 µM (not active)
IC50 [2]: 10.2 µM (active)
SMILES: O=C1[C@H]2CCCC[C@H]2C(=O)N1c1nnc(Cc2ccc(F)cc2)[nH]1

IC50 [6]: > 50 µM (inactive)
IC50 [7]: 9.8 µM (active)
SMILES: CC1=C(C(=O)O)N2C(=O)C(NC(=O)c3nn(C)c(C)c3Cl)C2SC1 (stereo unspecified)

IC50 (Bcl-2-like protein 10): 3.03 µM (active)
IC50 [9]: 2.78 µM (active)
SMILES: C=CCN1C(=O)/C(=C2/C(=O)N(CC(=O)O)c3ccccc32)S/C1=N/c1nccs1

IC50 (Estrogen receptor): 8.77 µM (active)
SMILES: Cc1cc(C)nc(NC(=O)CSc2nn(C)c(=S)s2)n1

IC50 [1]: > 100 µM (not active)
SMILES: Cc1ccc2[nH]c(SCC(=O)Nc3ccc(O)c(C(=O)O)c3)nc2c1

IC50 (Hexokinase HKDC1): 3.39 µM (active)
SMILES: CC(C)c1nc2oc3c(NCCO)ncnc3c2c2c1COC(C)(C)C2

IC50 [12]: > 100 µM (inactive)
SMILES: O=C(CN1CCN(C(=O)N2CCCCC2)CC1)Nc1ccc(F)cc1

IC50 [1]: > 100 µM (not active)
IC50 [2]: > 100 µM (inactive)
SMILES: COc1ccccc1Oc1ccc(S(=O)(=O)Nc2cccnc2)cc1

IC50 (Estrogen receptor): > 50 µM (not active)
IC50 (Estrogen receptor beta): > 50 µM (not active)
SMILES: Cc1cc(Cl)c(S(=O)(=O)Nc2ccc3c(c2)OCO3)cc1OCC(N)=O
